Test results as given in ChEMBL document CHEMBL5038659, “Discovery of the First Examples of Threonine Tyrosine Kinase PROTAC Degraders” (J Med Chem, 2022).
The source made the active and inactive calls. The calls are words filed in the database; no cut-off is given here.

How the values were obtained:
[1] = molecular target: T1, Protein cereblon/Dual specificity protein kinase TTK (Homo sapiens, UniProt P33981+Q96SW2); experiment: Protac activity at CRBN/TTK in human COLO 205 cells assessed as TTK degradation by measuring maximum degradation after 6 hrs by Western blotting analysis relative to control; type: cell-based
Target sequence in this assay (P33981 whole entry, looked up): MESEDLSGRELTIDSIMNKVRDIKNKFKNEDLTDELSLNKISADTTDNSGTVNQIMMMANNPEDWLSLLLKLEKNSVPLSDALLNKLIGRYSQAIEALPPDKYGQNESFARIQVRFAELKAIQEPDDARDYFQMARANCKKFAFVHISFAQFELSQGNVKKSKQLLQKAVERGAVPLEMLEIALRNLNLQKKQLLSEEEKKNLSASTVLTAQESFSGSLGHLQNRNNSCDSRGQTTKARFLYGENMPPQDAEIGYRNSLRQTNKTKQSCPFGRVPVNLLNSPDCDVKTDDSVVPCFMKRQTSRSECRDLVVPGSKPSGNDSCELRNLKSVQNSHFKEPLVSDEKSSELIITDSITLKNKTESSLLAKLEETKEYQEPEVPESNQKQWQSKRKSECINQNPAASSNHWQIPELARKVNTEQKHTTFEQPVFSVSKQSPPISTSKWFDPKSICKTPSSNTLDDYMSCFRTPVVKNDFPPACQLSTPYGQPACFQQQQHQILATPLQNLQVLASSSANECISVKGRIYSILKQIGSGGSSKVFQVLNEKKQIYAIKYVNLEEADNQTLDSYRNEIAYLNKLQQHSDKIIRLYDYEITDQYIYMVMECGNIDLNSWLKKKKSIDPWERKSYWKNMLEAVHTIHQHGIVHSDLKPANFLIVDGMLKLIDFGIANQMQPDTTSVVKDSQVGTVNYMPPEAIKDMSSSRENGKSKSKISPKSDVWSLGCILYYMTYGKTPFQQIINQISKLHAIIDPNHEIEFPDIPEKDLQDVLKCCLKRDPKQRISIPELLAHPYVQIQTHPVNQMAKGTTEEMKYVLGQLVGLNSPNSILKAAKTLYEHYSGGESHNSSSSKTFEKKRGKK
Target sequence in this assay (Q96SW2 whole entry, looked up): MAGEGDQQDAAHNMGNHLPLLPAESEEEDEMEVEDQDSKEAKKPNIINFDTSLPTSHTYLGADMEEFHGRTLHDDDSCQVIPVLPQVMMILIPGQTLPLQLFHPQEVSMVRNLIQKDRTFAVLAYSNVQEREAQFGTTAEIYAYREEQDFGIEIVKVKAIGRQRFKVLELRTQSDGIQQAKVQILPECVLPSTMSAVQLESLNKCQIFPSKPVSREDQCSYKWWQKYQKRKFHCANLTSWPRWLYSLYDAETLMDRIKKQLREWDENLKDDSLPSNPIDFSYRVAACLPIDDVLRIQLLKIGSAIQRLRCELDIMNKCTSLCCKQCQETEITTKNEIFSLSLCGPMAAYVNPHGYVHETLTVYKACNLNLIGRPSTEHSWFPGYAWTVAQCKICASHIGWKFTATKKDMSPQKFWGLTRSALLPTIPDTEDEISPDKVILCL

[2] = molecular target: T1, Protein cereblon/Dual specificity protein kinase TTK; experiment: Protac activity at CRBN/TTK in human COLO 205 cells assessed as degradation of TTK measured after 6 hrs by Western blotting analysis; type: cell-based
Target sequence in this assay (P33981 whole entry): as the sequence (P33981 whole entry, looked up) above
Target sequence in this assay (Q96SW2 whole entry): as the sequence (Q96SW2 whole entry, looked up) above

[3] = molecular target: T1, Protein cereblon/Dual specificity protein kinase TTK; experiment: Protac activity at CRBN/TTK in human HCT-116 cells assessed as degradation of TTK measured after 6 hrs by Western blotting analysis; type: cell-based
Target sequence in this assay (P33981 whole entry): as the sequence (P33981 whole entry, looked up) above
Target sequence in this assay (Q96SW2 whole entry): as the sequence (Q96SW2 whole entry, looked up) above

[4] = molecular target: T1, Protein cereblon/Dual specificity protein kinase TTK; experiment: Protac activity at CRBN/TTK in human HCT-116 cells assessed as TTK degradation by measuring maximum degradation after 6 hrs by Western blotting analysis relative to control; type: cell-based
Target sequence in this assay (P33981 whole entry, looked up): as the sequence (P33981 whole entry, looked up) above
Target sequence in this assay (Q96SW2 whole entry, looked up): as the sequence (Q96SW2 whole entry, looked up) above

[5] = Half life in Sprague-Dawley rat at 10 mg/kg, ip by LC-MS/MS analysis; type: ADME, organism-based; conditions: in vivo
[6] = AUC in Sprague-Dawley rat at 10 mg/kg, ip by LC-MS/MS analysis; type: ADME, organism-based; parameters: dose 10 mg/kg; conditions: in vivo
[7] = molecular target: T1, Protein cereblon/Dual specificity protein kinase TTK; experiment: Protac activity at CRBN/TTK in human LoVo cells assessed as degradation of TTK measured at […] for 6 hrs by Western blotting analysis; type: cell-based; conditions: dose lower 5.0 µM
Target sequence in this assay (P33981 whole entry, looked up): as the sequence (P33981 whole entry, looked up) above
Target sequence in this assay (Q96SW2 whole entry, looked up): as the sequence (Q96SW2 whole entry, looked up) above

[8] = molecular target: T1, Protein cereblon/Dual specificity protein kinase TTK; experiment: Protac activity at CRBN/TTK in human HCT-8 cells assessed as degradation of TTK measured at […] for 6 hrs by Western blotting analysis; type: cell-based; conditions: dose lower 5.0 µM
Target sequence in this assay (P33981 whole entry, looked up): as the sequence (P33981 whole entry, looked up) above
Target sequence in this assay (Q96SW2 whole entry, looked up): as the sequence (Q96SW2 whole entry, looked up) above

[9] = molecular target: T1, Protein cereblon/Dual specificity protein kinase TTK; experiment: Protac activity at CRBN/TTK in human […] cells assessed as degradation of TTK measured at […] for 6 hrs by Western blotting analysis; type: cell-based; conditions: dose lower 5.0 µM
Target sequence in this assay (P33981 whole entry, looked up): as the sequence (P33981 whole entry, looked up) above
Target sequence in this assay (Q96SW2 whole entry, looked up): as the sequence (Q96SW2 whole entry, looked up) above

LoVo = experiment: Antiproliferative against human LoVo cells assessed as cell viability at 0.0001 to 100 uM at day 4 by CCK-8 assay; type: functional, cell-based; conditions: dose 0.0001-100 µM
HCT-8 = experiment: Antiproliferative against human HCT-8 cells assessed as cell viability at 0.0001 to 100 uM at day 4 by CCK-8 assay; type: functional, cell-based; conditions: dose 0.0001-100 µM
HCT-29 = experiment: Antiproliferative against human […] cells assessed as cell viability at 0.0001 to 100 uM at day 4 by CCK-8 assay; type: functional, cell-based; conditions: dose 0.0001-100 µM
[10] = molecular target: T1, Protein cereblon/Dual specificity protein kinase TTK; experiment: Protac activity at CRBN/TTK in human COLO 205 cells assessed as induction of TTK degradation at 5 nM after 6 to 8 hrs post washout by Western blot analysis; type: cell-based; conditions: time 6-8 hrs
Target sequence in this assay (P33981 whole entry, looked up): as the sequence (P33981 whole entry, looked up) above
Target sequence in this assay (Q96SW2 whole entry, looked up): as the sequence (Q96SW2 whole entry, looked up) above

[11] = molecular target: T1, Protein cereblon/Dual specificity protein kinase TTK; experiment: Protac activity at CRBN/TTK in human COLO 205 cells assessed as induction of TTK degradation at 5 nM after 16 hrs post washout by Western blot analysis; type: cell-based
[12] = molecular target: T1, Protein cereblon/Dual specificity protein kinase TTK; experiment: Protac activity at CRBN/TTK in human COLO 205 cells assessed as induction of TTK degradation in presence of N-[4-[2-[2-methoxy-4-(4-methylpiperazin-1-yl)anilino]-5-methyl-7-oxo-pyrido[2,3-d]pyrimidin-8-yl]cyclohexyl]propanamide after 6 hrs by Western blotting relative to control; type: cell-based
[13] = molecular target: T1, Protein cereblon/Dual specificity protein kinase TTK; experiment: Protac activity at CRBN/TTK in human COLO 205 cells assessed as induction of TTK degradation in presence of MG132 incubated for 1 hr by Western blotting analysis relative to control; type: cell-based
COLO 205 [14] = experiment: Antiproliferative against human COLO 205 cells assessed as cell viability after 4 days by CCK-8 assay; type: functional, cell-based; conditions: COLO 205, 96 h
[15] = molecular target: T1, Protein cereblon/Dual specificity protein kinase TTK; experiment: In vivo protac activity at CRBN/TTK in human COLO-205 cells xenografted in CB17-SCID mouse at 10 to 20 mg/kg, ip daily for 16 days by western blotting analysis; type: organism-based; conditions: dose 10-20 mg/kg, time 16.0 day
COLO 205 [16] = experiment: Antitumor activity against human COLO205 cells xenografted in CB17-SCID mouse assessed as tumor growth inhibition at 20 mg/kg, ip daily for 16 days relative to control; type: functional; conditions: COLO 205, ip, 384 h, time 16 day, read-out: TGI
[17] = Toxicity in CB17-SCID mouse xenografted with human […] cells assessed as effect on body weight at 10 to 20 mg/kg, ip daily for 16 days; type: organism-based, COLO 205; conditions: in vivo, 384 h, dose 10-20 mg/kg, time 16 day
COLO 205 [18] = experiment: Antitumor activity against human COLO205 cells xenografted in CB17-SCID mouse assessed as tumor growth inhibition at 10 mg/kg, ip daily for 16 days relative to control; type: functional, organism-based; conditions: time 16.0 day
[19] = molecular target: von Hippel-Lindau disease tumor suppressor/Dual specificity protein kinase TTK (Homo sapiens, UniProt P33981+P40337); experiment: Protac activity at VHL/TTK in human HCT-116 cells assessed as degradation of TTK measured after 6 hrs by Western blotting analysis; type: cell-based
Chain of von Hippel-Lindau disease tumor suppressor/Dual specificity protein kinase TTK (P33981 whole entry): as the sequence (P33981 whole entry, looked up) above
Chain of von Hippel-Lindau disease tumor suppressor/Dual specificity protein kinase TTK (P40337 whole entry): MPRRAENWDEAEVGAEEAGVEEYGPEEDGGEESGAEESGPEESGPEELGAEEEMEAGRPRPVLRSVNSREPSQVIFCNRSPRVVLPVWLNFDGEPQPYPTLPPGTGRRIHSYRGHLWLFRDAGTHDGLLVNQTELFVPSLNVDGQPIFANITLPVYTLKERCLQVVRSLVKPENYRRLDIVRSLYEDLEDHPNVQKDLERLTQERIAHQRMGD

| Emax [1] [%] | DC50 [2] [nM] | DC50 [3] [nM] | Emax [4] [%] | SMILES | also measured |
| --- | --- | --- | --- | --- | --- |
| 87 | 19.1 | 74.5 | 66 | CCC(=O)N[C@H]1CC[C@@H](n2c(=O)cc(C)c3cnc(Nc4ccc(N5CCN(C(=O)CCCCCCCCCC#Cc6ccc7c(c6)C(=O)N(C6CCC(=O)NC6=O)C7)CC5)cc4OC)nc32)CC1 (some centres undefined) | – |
| 85 | 5.6 | 30.2 | 83 | CCC(=O)N[C@H]1CC[C@@H](n2c(=O)cc(C)c3cnc(Nc4ccc(N5CCN(C(=O)CCCCCCCCCC#Cc6ccc7c(c6)CN(C6CCC(=O)NC6=O)C7=O)CC5)cc4OC)nc32)CC1 (some centres undefined) | – |
| 84 | 7 | 58.1 | 53 | CCC(=O)N[C@H]1CC[C@@H](n2c(=O)cc(C)c3cnc(Nc4ccc(N5CCN(C(=O)CCCCCCCC#Cc6cccc7c6CN(C6CCC(=O)NC6=O)C7=O)CC5)cc4OC)nc32)CC1 (some centres undefined) | – |
| 82 | 3.1 | 12.4 | 77 | CCC(=O)N[C@H]1CC[C@@H](n2c(=O)cc(C)c3cnc(Nc4ccc(N5CCN(C(=O)CCCCCC#Cc6ccc7c(c6)C(=O)N(C6CCC(=O)NC6=O)C7)CC5)cc4OC)nc32)CC1 (some centres undefined) | half-life [5]: 3.2 h; AUC [6]: 2330 ng·h/mL; Activity [7]: Dose-Dependent Effect; Activity [8]: Dose-Dependent Effect; Activity [9]: Dose-Dependent Effect; Activity (LoVo): Dose-Dependent Effect; Activity (HCT-8): Dose-Dependent Effect; Activity (HCT-29): Dose-Dependent Effect; Activity [10]: Active; Activity [11]: inactive; Activity [12]: inactive; Activity [13]: inactive; IC50 (COLO 205 [14]): 200 nM; Activity [15]: Active; inhibition in vivo at 20 mg/kg (COLO 205 [16]): 36.7%; Activity [17]: Non-Toxic; Activity (COLO 205 [18]): inactive |
| – | – | – | – | CCC(=O)N[C@H]1CC[C@@H](n2c(=O)cc(C)c3cnc(Nc4ccc(N5CCN(C(=O)CCCC#Cc6ccc7c(c6)CN(C6CCC(=O)N(C)C6=O)C7=O)CC5)cc4OC)nc32)CC1 (some centres undefined) | IC50 (COLO 205 [14]): 1500 nM |
| 86 | 1.5 | 35 | 61 | CCC(=O)N[C@H]1CC[C@@H](n2c(=O)cc(C)c3cnc(Nc4ccc(N5CCN(C(=O)CCCCCC#Cc6ccc7c(c6)CN(C6CCC(=O)NC6=O)C7=O)CC5)cc4OC)nc32)CC1 (some centres undefined) | – |
| – | – | – | – | CCC(=O)N[C@H]1CC[C@@H](n2c(=O)cc(C)c3cnc(Nc4ccc(N5CCN(CCOCCC(=O)N[C@H](C(=O)N6C[C@H](O)C[C@H]6C(=O)NCc6ccc(-c7scnc7C)cc6)C(C)(C)C)CC5)cc4OC)nc32)CC1 | DC50 [19]: > 1000 nM |
| 84 | 7 | 161 | 43 | CCC(=O)N[C@H]1CC[C@@H](n2c(=O)cc(C)c3cnc(Nc4ccc(N5CCN(C(=O)CCCCCCCC#Cc6ccc7c(c6)C(=O)N(C6CCC(=O)NC6=O)C7)CC5)cc4OC)nc32)CC1 (some centres undefined) | – |
| – | – | – | – | CCC(=O)N[C@H]1CC[C@@H](n2c(=O)cc(C)c3cnc(Nc4ccc(N5CCN(CCCCCCOCCC(=O)N[C@H](C(=O)N6C[C@H](O)C[C@H]6C(=O)NCc6ccc(-c7scnc7C)cc6)C(C)(C)C)CC5)cc4OC)nc32)CC1 | DC50 [19]: > 1000 nM |
| 64 | 30.3 | > 1000 | 28 | CCC(=O)N[C@H]1CC[C@@H](n2c(=O)cc(C)c3cnc(Nc4ccc(N5CCN(C(=O)CCCC#Cc6cccc7c6C(=O)N(C6CCC(=O)NC6=O)C7)CC5)cc4OC)nc32)CC1 (some centres undefined) | – |
| 73 | 46 | 496 | 37 | CCC(=O)N[C@H]1CC[C@@H](n2c(=O)cc(C)c3cnc(Nc4ccc(N5CCN(C(=O)CCCCCCCC#Cc6cccc7c6C(=O)N(C6CCC(=O)NC6=O)C7)CC5)cc4OC)nc32)CC1 (some centres undefined) | – |
| 85 | 3 | 663 | 50 | CCC(=O)N[C@H]1CC[C@@H](n2c(=O)cc(C)c3cnc(Nc4ccc(N5CCN(C(=O)CCCCCCCC#Cc6ccc7c(c6)CN(C6CCC(=O)NC6=O)C7=O)CC5)cc4OC)nc32)CC1 (some centres undefined) | – |
| – | – | – | – | CCC(=O)N[C@H]1CC[C@@H](n2c(=O)cc(C)c3cnc(Nc4ccc(N5CCN(C(=O)CCCCCC#Cc6ccc7c(c6)C(=O)N(C6CCC(=O)N(C)C6=O)C7)CC5)cc4OC)nc32)CC1 (some centres undefined) | IC50 (COLO 205 [14]): 1500 nM |
| 87 | 2.2 | 49.6 | 66 | CCC(=O)N[C@H]1CC[C@@H](n2c(=O)cc(C)c3cnc(Nc4ccc(N5CCN(C(=O)CCCCCCCCCC#Cc6cccc7c6CN(C6CCC(=O)NC6=O)C7=O)CC5)cc4OC)nc32)CC1 (some centres undefined) | – |
| – | – | – | – | CCC(=O)N[C@H]1CC[C@@H](n2c(=O)cc(C)c3cnc(Nc4ccc(N5CCN(CCCCOCCC(=O)N[C@H](C(=O)N6C[C@H](O)C[C@H]6C(=O)NCc6ccc(-c7scnc7C)cc6)C(C)(C)C)CC5)cc4OC)nc32)CC1 | DC50 [19]: > 1000 nM |
| 88 | 21.7 | > 1000 | 13 | CCC(=O)N[C@H]1CC[C@@H](n2c(=O)cc(C)c3cnc(Nc4ccc(N5CCN(C(=O)CCCCCCCCCC#Cc6cccc7c6C(=O)N(C6CCC(=O)NC6=O)C7)CC5)cc4OC)nc32)CC1 (some centres undefined) | – |
| 28 | 599 | > 1000 | 43 | CCC(=O)N[C@H]1CC[C@@H](n2c(=O)cc(C)c3cnc(Nc4ccc(N5CCN(C(=O)CCCC#Cc6cccc7c6CN(C6CCC(=O)NC6=O)C7=O)CC5)cc4OC)nc32)CC1 (some centres undefined) | – |
| 88 | 1.7 | 5.8 | 80 | CCC(=O)N[C@H]1CC[C@@H](n2c(=O)cc(C)c3cnc(Nc4ccc(N5CCN(C(=O)CCCC#Cc6ccc7c(c6)CN(C6CCC(=O)NC6=O)C7=O)CC5)cc4OC)nc32)CC1 (some centres undefined) | half-life [5]: 4.3 h; AUC [6]: 2240 ng·h/mL; Activity [7]: Dose-Dependent Effect; Activity [8]: Dose-Dependent Effect; Activity [9]: Dose-Dependent Effect; Activity (LoVo): Dose-Dependent Effect; Activity (HCT-8): Dose-Dependent Effect; Activity (HCT-29): Dose-Dependent Effect; Activity [10]: Active; Activity [11]: inactive; Activity [12]: inactive; Activity [13]: inactive; IC50 (COLO 205 [14]): 100 nM; Activity [15]: Active; inhibition in vivo at 20 mg/kg (COLO 205 [16]): 46%; Activity [17]: Non-Toxic; Activity (COLO 205 [18]): inactive |
| 77 | 3.3 | 25.4 | 57 | CCC(=O)N[C@H]1CC[C@@H](n2c(=O)cc(C)c3cnc(Nc4ccc(N5CCN(C(=O)CCCC#Cc6ccc7c(c6)C(=O)N(C6CCC(=O)NC6=O)C7)CC5)cc4OC)nc32)CC1 (some centres undefined) | – |
| 76 | 5 | 20.3 | 50 | CCC(=O)N[C@H]1CC[C@@H](n2c(=O)cc(C)c3cnc(Nc4ccc(N5CCN(C(=O)CCCCCC#Cc6cccc7c6CN(C6CCC(=O)NC6=O)C7=O)CC5)cc4OC)nc32)CC1 (some centres undefined) | – |
| – | – | – | – | CCC(=O)N[C@H]1CC[C@@H](n2c(=O)cc(C)c3cnc(Nc4ccc(N5CCN(CCCCCCCCOCCC(=O)N[C@H](C(=O)N6C[C@H](O)C[C@H]6C(=O)NCc6ccc(-c7scnc7C)cc6)C(C)(C)C)CC5)cc4OC)nc32)CC1 | DC50 [19]: > 1000 nM |
| 72 | 31.3 | > 1000 | 41 | CCC(=O)N[C@H]1CC[C@@H](n2c(=O)cc(C)c3cnc(Nc4ccc(N5CCN(C(=O)CCCCCC#Cc6cccc7c6C(=O)N(C6CCC(=O)NC6=O)C7)CC5)cc4OC)nc32)CC1 (some centres undefined) | – |
